Several values for one entry are separate records, joined by “and”; a condition that tells them apart may be missing. Equal entries are not always repeated.
Tested on: NCI-H358 (K-Ras G12C)
Assay: CellTiter-Glo cell viability assay, NCI-H358
Assay type: cell-based, human
Details: Homo sapiens, NCI-H358, Table 5; read-out: H358 Cell Viability assay data (K-Ras G12C, IC50)
Procedure: Note - The following protocol describes a procedure for monitoring cell viability of K-Ras mutant cancer cell lines in response to a compound of the invention. Other RAS isoforms may be employed, though the number of cells to be seeded will vary based on cell line used.
Test compounds (132.5 nL) were directly dispensed into the assay plates containing cells. […] On day 5, assay plates and their contents were equilibrated to room temperature for approximately 30 minutes. […] Luminescence was measured using the PerkinElmer Enspire. Data were normalized by the following: (Sample signal/Avg. DMSO)*100. The data were fit using a four-parameter logistic fit.

Molecule | IC50 [µM]
CO[C@@H](C)c1ncc(N2CCN(C)CC2)cc1-c1c2c3cc(ccc3n1CC(F)(F)F)-c1cccc(c1)C[C@H](NC(=O)[C@H](C(C)C)N(C)C(=O)C1(F)CCN(C(=O)C#CC(C)(C)N(C)C)CC1)C(=O)N1CCC[C@H](N1)C(=O)OCC(C)(C)C2 [Compound A542, 1-(4-(dimethylamino)-4-methylpent-2-ynoyl)-4-fluoro-N-((2S)-1-(((6^1S,4S)-1^2-(2-((S)-1-methoxyethyl)-5-(4-methylpiperazin-1-yl)pyridin-3-yl)-10,10-dimethyl-5,7-dioxo-1^1-(2,2,2-trifluoroethyl)-6^1,6^2,6^3,6^4,6^5,6^6-hexahydro-1^1H-8-oxa-1(5,3)-indola-6(1,3)-pyridazina-2(1,3)-benzenacycloundecaphane-4-yl)amino)-3-methyl-1-oxobutan-2-yl)-N-methylpiperidine-4-carboxamide] | < 0.01
CO[C@@H](C)c1ncccc1-c1c2c3cc(ccc3n1CC(F)(F)F)-c1csc(n1)C[C@H](NC(=O)[C@H](C(C)C)N(C)C(=O)N1C[C@@H]3OCCN(C(=O)/C=C/CF)[C@@H]3C1)C(=O)N1CCC[C@H](N1)C(=O)OCC(C)(C)C2 (atropisomer, axis not shown) [Compound A571] | < 0.01
CCn1c(-c2cccnc2[C@H](C)OC)c2c3cc(ccc31)-c1cc(cc(C(F)F)c1)C[C@H](NC(=O)[C@H](C(C)C)N(C)C(=O)[C@H]1CCN(C(=O)C#CC(C)(C)N3CCC3)C1)C(=O)N1CCC[C@H](N1)C(=O)OCC(C)(C)C2 (atropisomer, axis not shown) [Compound A466] | < 0.01
CO[C@@H](C)c1ncccc1-c1c2c3cc(ccc3n1CC(F)(F)F)-c1csc(n1)C[C@H](NC(=O)[C@H](C(C)C)N(C)C(=O)N1C[C@@H]3OCCN(C(=O)/C=C/C(F)F)[C@@H]3C1)C(=O)N1CCC[C@H](N1)C(=O)OCC(C)(C)C2 (atropisomer, axis not shown) [Compound A572] | < 0.01
CO[C@@H](C)c1ncccc1-c1c2c3cc(ccc3n1CC(F)(F)F)-c1nc(nn1C)C[C@H](NC(=O)[C@H](C(C)C)N(C)C(=O)C1(F)CCN(C(=O)C#CC(C)(C)N(C)C)CC1)C(=O)N1CCC[C@H](N1)C(=O)OCC(C)(C)C2 (atropisomer, axis not shown) [Compound A577] | < 0.01

Same assay, conditions: Homo sapiens, NCI-H358, read-out: H358 Cell Viability assay data (K-Ras G12C, IC50, uM), Table 5

Molecule | IC50 [µM]
C=CC(=O)N1CC[C@H](C(=O)N(C)[C@H](C(=O)N[C@H]2Cc3nc(cs3)-c3ccc4c(n3)c(c(-c3cccnc3[C@H](C)OC)n4CC)CC(C)(C)COC(=O)[C@@H]3CCCN(N3)C2=O)C(C)C)C1 [Compound A347, (2S)-N-[(7S,13S)-21-ethyl-20-{2-[(1S)-1-methoxyethyl]pyridin-3-yl}-17,17-dimethyl-8,14-dioxo-15-oxa-4-thia-9,21,25,27,28-pentaazapentacyclo[17.5.2.1^{2,5}.1^{9,13}.0^{22,26}]octacosa-1(25),2,5(28),19,22(26),23-hexaen-7-yl]-3-methyl-2-{N-methyl-1-[(3S)-1-(prop-2-enoyl)pyrrolidin-3-yl]formamido}butanamide] | 0.1 to 1
C=CC(=O)N1CC[C@H](C(=O)N(C)[C@H](C(=O)N[C@H]2Cc3cc(O)cc(c3)-c3ccc4c(c3)c(c(-c3cnccc3[C@H](C)OC)n4CC)CC(C)(C)COC(=O)[C@@H]3CCCN(N3)C2=O)C(C)C)C1 [Compound A112] | < 0.01
CCn1c(-c2cccnc2[C@H](C)OC)c2c3cc(ccc31)-c1csc(n1)C[C@H](NC(=O)[C@H](C(C)C)N(C)C(=O)N(C)C1CN(C(=O)/C=C/C(C)(C)O)C1)C(=O)N1CCC[C@H](N1)C(=O)OCC(C)(C)C2 [Compound A350] | 0.1 to 1
CCn1c(-c2cccnc2COC)c2c3cc(ccc31)-c1cc(C)cc(c1)C[C@H](NC(=O)[C@H](C(C)C)N(C)C(=O)[C@H]1CCN(C(=O)C#CCN(C)C)C1)C(=O)N1CCC[C@H](N1)C(=O)OCC(C)(C)C2 [Compound A157] | < 0.01
C=CS(=O)(=O)N1CC[C@H](C(=O)N(C)[C@H](C(=O)N[C@H]2Cc3cccc(c3)-c3ccc4c(c3)c(c(-c3cccnc3[C@H](C)OC)n4CC)CC(C)(C)COC(=O)[C@@H]3CCCN(N3)C2=O)C(C)C)C1 (atropisomer, axis not shown) [Compound A124] | < 0.01

Same assay, conditions: Table 5; read-out: H358 Cell Viability assay data (K-Ras G12C, IC50)

Molecule | IC50
C=CC(=O)N1CC[C@H](C(=O)N(C)[C@H](C(=O)N[C@H]2Cc3cccc(c3)-c3ccc4c(c3)c(c(-c3ccccc3CCOC)n4CC)CC(C)(C)COC(=O)[C@@H]3CCCN(N3)C2=O)C(C)C)C1 [Compound A24] | > 1 µM
C=CC(=O)N1CC[C@H](C(=O)N(C)[C@H](C(=O)N[C@H]2Cc3cc(O)cc(c3)-c3ccc4c(c3)c(c(-c3cnccc3[C@H](C)OC)n4CC)CC(C)(C)COC(=O)[C@@H]3CCCN(N3)C2=O)C(C)C)C1 [Compound A76] | < 0.01 µM
(2S)-N-[(7S,13S)-21-ethyl-20-[2-(methoxymethyl)pyridin-3-yl]-17,17-dimethyl-8,14-dioxo-15-oxa-4-thia-9,21,27,28-tetraazapentacyclo[17.5.2.1^2,^5.1^9,^13.0^22,^26]octacosa-1(25),2,5(28),19,22(26),23-hexaen-7-yl]-3-methyl-2-{N-methyl-1-[(3S)-1-(prop-2-enoyl)pyrrolidin-3-yl]formamido}butanamide [Compound A194] | < 0.01 µM and 0.01 to 0.1 µM
C=CC(=O)N1CC[C@H](C(=O)N(C)[C@H](C(=O)N[C@H]2Cc3cc(N)cc(c3)-c3ccc4c(c3)c(c(-c3ccccc3CCOC)n4CC)CC(C)(C)COC(=O)[C@@H]3CCCN(N3)C2=O)C(C)C)C1 [Compound A2, (2S)-N-[(8S,14S)-4-amino-22-ethyl-21-[2-(2-methoxyethyl)phenyl]-18,18-dimethyl-9,15-dioxo-16-oxa-10,22,28-triazapentacyclo[18.5.2.1^2,6.1^10,^14.0^23,^27]nonacosa-1(26),2,4,6(29),20,23(27),24-heptaen-8-yl]-3-methyl-2-{N-methyl-1-[(3S)-1-(prop-2-enoyl)pyrrolidin-3-yl]formamido}butanamide] | > 1 µM
C=CC(=O)N1C[C@H](C)[C@H](C(=O)N(C)[C@H](C(=O)N[C@H]2Cc3cc(O)cc(c3)-c3ccc4c(c3)c(c(-c3cccnc3COC)n4CC)CC(C)(C)COC(=O)[C@@H]3CCCN(N3)C2=O)C(C)C)C1 [Compound A56] | < 0.01 µM
C=CC(=O)N1CC[C@H](C(=O)N(C)[C@H](C(=O)N[C@H]2Cc3cc(O)cc(c3)-c3ccc4c(c3)c(c(-c3ccc(C5CCN(C)CC5)cc3)n4CC)CC(C)(C)COC(=O)[C@@H]3CCCN(N3)C2=O)C(C)C)C1 [Compound A39] | 0.01 to 0.1 µM
C=CC(=O)N1CC[C@H](C(=O)N(C)[C@H](C(=O)N[C@H]2Cc3cc(O)cc(c3)-c3ccc4c(c3)c(c(-c3ccccc3COC)n4CC)CC(C)(C)COC(=O)[C@@H]3CCCN(N3)C2=O)C2CCCC2)C1 [Compound A27] | 0.01 to 0.1 µM
C=CC(=O)N1CC[C@H](C(=O)N(C)[C@H](C(=O)N[C@H]2Cc3cc(OC(C)=O)cc(c3)-c3ccc4c(c3)c(c(-c3ccccc3CN(C)C)n4CC)CC(C)(C)COC(=O)[C@@H]3CCCN(N3)C2=O)C(C)C)C1 [Compound A59] | 0.1 to 1 µM
C=CC(=O)N1CC2(CCN([C@H](C(=O)N[C@H]3Cc4cc(O)cc(c4)-c4ccc5c(c4)c(c(-c4ccccc4CCOC)n5CC)CC(C)(C)COC(=O)[C@@H]4CCCN(N4)C3=O)C(C)C)C2=O)C1 [Compound A31] | 0.01 to 0.1 µM

Other lines, results leading:

IC50 | Molecule
0.01 to 0.1 µM | CCn1c(-c2cccnc2C(C)OC)c2c3cc(ccc31)-c1cccc(c1)C[C@H](NC(=O)[C@H](C(C)C)N(C)C(=O)N1CCC13CN(C(=O)C#CC(C)(C)N(C)C)C3)C(=O)N1CCC[C@H](N1)C(=O)OCC(C)(C)C2 (some centres unmarked) [Compound A717]
> 1 µM | CCn1c(-c2cccnc2COC)c2c3cc(ccc31)-c1cc(O)cc(c1)C[C@H](NC(=O)[C@H](C(C)C)N(C)C(=O)[C@H]1CCN(C(=O)/C=C/CN3CCN(C)CC3)C1)C(=O)N1CCC[C@H](N1)C(=O)OCC(C)(C)C2 [Compound A72]
0.01 to 0.1 µM | CCn1c(-c2cccnc2COC)c2c3cc(ccc31)-c1cc(O)cc(c1)C[C@H](NC(=O)[C@H](C(C)C)N(C)C(=O)[C@H]1CCN(C(=O)C#CCN3CCOCC3)C1)C(=O)N1CCC[C@H](N1)C(=O)OCC(C)(C)C2 [Compound A95, (2S)-N-[(8S,14S)-22-ethyl-4-hydroxy-21-[2-(methoxymethyl)pyridin-3-yl]-18,18-dimethyl-9,15-dioxo-16-oxa-10,22,28-triazapentacyclo[18.5.2.1^2,^6.1^10,^14.0^23,^27]nonacosa-1(26),2,4,6(29),20,23(27),24-heptaen-8-yl]-3-methyl-2-{N-methyl-1-[(3S)-1-[4-(morpholin-4-yl)but-2-ynoyl]pyrrolidin-3-yl]formamido}butanamide]
0.01 to 0.1 µM | C=CC(=O)N1CC[C@H](C(=O)N(C)[C@H](C(=O)N[C@H]2Cc3cc(O)cc(c3)-c3ccc4c(c3)c(c(-c3cncc(COC)c3)n4CC)CC(C)(C)COC(=O)[C@@H]3CCCN(N3)C2=O)C(C)C)C1 [Compound A83]
0.01 to 0.1 µM | C=CC(=O)N1CC[C@H](C(=O)N(C)[C@H](C(=O)N[C@H]2Cc3cc(O)cc(c3)-c3ccc4c(c3)c(c(-c3ccc(CN(C)C)cc3COC)n4CC)CC(C)(C)COC(=O)[C@@H]3CCCN(N3)C2=O)C(C)C)C1 [Compound A51]
0.01 to 0.1 µM | C=CS(=O)(=O)N1CC[C@H](C(=O)N(C)[C@H](C(=O)N[C@H]2Cc3cc(O)cc(c3)-c3ccc4c(c3)c(c(-c3cccnc3COC)n4CC)CC(C)(C)COC(=O)[C@@H]3CCCN(N3)C2=O)C(C)C)C1 [Compound A69]
0.1 to 1 µM | C=CC(=O)N1CC[C@H](C(=O)N(C)[C@H](C(=O)N[C@H]2Cc3cc(O)cc(c3)-c3ccc4c(c3)c(c(-c3ccc5c(c3)OCCN5C)n4CC)CC(C)(C)COC(=O)[C@@H]3CCCN(N3)C2=O)C(C)C)C1 [Compound A50]

— EP4806900A2, “RAS INHIBITORS” (Revolution Medicines, Inc., priority 2019, dated 2021)
